Test results from publication PMC8505397, “Development of peptides targeting receptor binding site of the envelope glycoprotein to contain the West Nile virus infection” (Scientific Reports, 2021).

What was measured:
[1] = target: T1, interaction between rDIII and proteins of hBMECs (West Nile virus, UniProt P06935); assay: Blocking of interaction between rDIII and proteins of hBMECs by peptides (ELISA); assay type: binding, West Nile virus / human
T1 construct: rDIII – recombinant domain III; made in house; host or cells: E. coli M15
T1 sequence (P06935 584-692 limits assumed): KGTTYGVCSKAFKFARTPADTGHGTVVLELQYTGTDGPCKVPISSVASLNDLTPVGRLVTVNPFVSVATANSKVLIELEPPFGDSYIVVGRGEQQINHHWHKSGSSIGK
Protocol: First, concentration-dependent ELISA and Western blot were performed to get the minimum concentration of rDIII required to show its interaction with hBMECs proteins. Details are presented in Supplementary Method S12 and Supplementary Method S13. Subsequently, the ability of 7-mer and 12-mer peptides to block the interaction between rDIII and proteins of hBMECs was tested. A tenfold molar excess of peptides was incubated with rDIII for 1 h at room temperature. Such pre-incubated rDIII was subsequently used in the assays. Details of both methods are described in Supplementary Method S12 and Supplementary Method S13. […]
Blocking of interaction between rDIII and proteins of hBMECs by peptides (ELISA). First, different concentrations of rDIII were tested to get the minimum concentration of rDIII required to show the interaction with hBMECs proteins. Protein extract of hBMECs (4 μg/well) diluted in coating buffer (0.5 M Na2CO3, 0.5 M NaHCO3; pH 9.5) was incubated in the microtiter wells for overnight at 4°C. Unbound hBMECs proteins were washed with PBS (pH 7.3) containing 0.05% Tween 20 (0.05% PBST) and non-specific binding sites were blocked with 0.5% BSA in 0.05% PBST. rDIII at different concentrations (5 µg, 2.5 µg, 2 µg, 1 µg, 500 […]
ng, 250 ng, 125 ng, and 62.5 ng) diluted in 0.05% PBST was added into wells and incubated for 3 h at room temperature and constant shaking. Wells were washed 3 times with 0.05% PBST and incubated with HisProbe-HRP conjugate (1:5,000 dilution in 0.1% BSA in 0.05% PBST; Thermo Fisher Scientific) for 30 min at room temperature and constant shaking. […] The reaction was stopped after 25 min with 2 M H2SO4 and the absorbance was measured at 450 nm. […]
After blocking, the wells were washed 3 times with 0.05% PBST, pre-incubated rDIII was added and incubated for 3 h at room temperature with constant shaking. […] The reaction was stopped after 25 min with 2 M H2SO4 and the absorbance was measured at 450 nm. hBMECs proteins incubated with untreated rDIII were used as a positive control. […]

hBMECs = assay: Peptide cytotoxicity assay (XTT); assay type: cell-based, human; details: 1 μM, 2 μM, 4 μM and 6 μM; 24 h
Protocol: The toxicity of peptides was determined by the XTT test (AppliChem, USA) as per the manufacturer’s instructions. Details are presented in Supplementary Method S15. […]
Cytotoxicity assay. hBMECs were cultured in 96-well TPP tissue culture plates (Sigma) in supplemented EBM-2 medium (Lonza) to obtain ~70% confluency (as described in Supplementary Method S1). The peptides in concentrations of 1 µM, 2 µM, 4 µM, and 6 µM (diluted in 100 µL of EBM-2 medium supplemented only with 10% FBS, 10 mM HEPES and 1 ng/mL bFGF; Sigma) were added and incubated for 24 h at 37°C in a humid atmosphere of 5% CO2. Untreated cells served as a negative control (100% viability). For positive control, cells treated with 0.01% Triton X-100 were used. After incubation, the mixture of XTT and activation reagent (5:0.1 [v/v], 50 µL each well) was added to each well and incubated for an additional 3 h at 37°C in a humid atmosphere of 5% CO2. The absorbance was measured at 450 nm. The assay was performed in replicates. The viability (%) of endothelial cells was calculated using the formula: Cell viability (%) = [(A - xA ) × 100] / (xA -

Hemolysis assay = assay type: cell-based; details: sheep, red blood cells (washed, in saline); 1 μM and 6 μM; 1 h and 5 h; threshold for hemolytic activity > 10%; read-out: hemolysis, maximum release of the hemoglobin
Protocol: Hemolysis assay was performed according to the method of Bender et al.[94]. Details are presented in Supplementary Method S16. […]
Assessment of the hemolytic activity. Sheep whole blood (10 mL) was centrifuged at 2000 rpm for 5 min at room temperature. The red blood cells (RBCs) were carefully separated from […]
plasma and washed 3 times with saline (0.9% NaCl). The washed RBCs were resuspended in saline (50 mL). Peptides at two different concentrations (1 µM and 6 µM) resuspended in saline solution (100 µL) were added to the RBCs suspension (100 µL). As a positive control (100% lysis), 0.1% Triton X-100 was used. Negative control (0% lysis) was prepared by adding only saline (100 µL) to the RBCs suspension (100 µL). All samples were incubated at 37°C for 1 h and 5 h. The mixtures were gently shaked every 30 min. After incubation, the RBCs were separated by centrifugation (2000 rpm for 5 min) and the supernatant (100 µL) was incubated for 30 min at ambient conditions to oxidize the hemoglobin. The absorbance of oxyhemoglobin present in the supernatant was assessed by absorption at 414 nm. The assay was performed in triplicates. The hemolysis (%) of the RBCs was calculated using the following formula: Hemolysis (%) = [(Asample - xĀ negative control) / xĀ positive control] × 100. […]
(TCID50/ml) exactly as described before1. […]

CC[C@H](C)[C@@H]1NC(=O)[C@@H](NC(=O)[C@H](C)N)CSSC[C@@H](C(=O)NCC(=O)NCC(=O)NCC(=O)N[C@@H](CO)C(=O)O)NC(=O)[C@H](C)NC(=O)[C@H](CCCNC(=N)N)NC(=O)[C@H]([C@@H](C)O)NC(=O)[C@H](CO)NC(=O)[C@H](CO)NC(=O)[C@H](Cc2c[nH]cn2)NC1=O [CP4, CIHSSTRAC]
A450, rDIII binding to hBMECs proteins after pre-incubation with peptide ([1]; pre-incubated with tenfold molar excess (1.5 nM) of peptide, positive control A450 = 1.064): 0.346
inhibition of the interaction between rDIII and hBMECs proteins ([1]; rDIII 0.15 nM pre-incubated with tenfold molar excess (1.5 nM) of peptide, ELISA): 67%
cytotoxic effect on hBMECs (XTT) (hBMECs): None of the peptides was toxic
hemolysis (Hemolysis assay): < 0.15%
